Reference: the CheMixHub ionic liquid set

Assay: xn = mol fraction of the nth substance listed

CCCCCCCCCCCCCCCC[n+]1ccccc1.[Cl-] + NCC(=O)O + O
308.15 K, 101 kPa
Conditions	electrical conductivity [S/m]
x2 = 0, x1 = 5.4e-07	0.000222
x2 = 0, x1 = 9e-07	0.00029
x2 = 0, x1 = 1.62e-06	0.0004
x2 = 0, x1 = 2.34e-06	0.000465
x2 = 0, x1 = 2.88e-06	0.000581
x2 = 0, x1 = 3.78e-06	0.000705
x2 = 0, x1 = 4.5e-06	0.000794
x2 = 0, x1 = 5.59e-06	0.000937
x2 = 0, x1 = 6.85e-06	0.00106
x2 = 0, x1 = 7.93e-06	0.001222
x2 = 0, x1 = 9.01e-06	0.001438
x2 = 0, x1 = 1.009e-05	0.00159
x2 = 0, x1 = 1.117e-05	0.001701
x2 = 0, x1 = 1.442e-05	0.00209
x2 = 0, x1 = 1.55e-05	0.00219
x2 = 0, x1 = 1.766e-05	0.00237
x2 = 0, x1 = 1.982e-05	0.00248
x2 = 0, x1 = 2.18e-05	0.00259
x2 = 0, x1 = 2.397e-05	0.00264
x2 = 0, x1 = 2.595e-05	0.00278
x2 = 0, x1 = 2.991e-05	0.00297
x2 = 0, x1 = 3.406e-05	0.00314
x2 = 0, x1 = 3.784e-05	0.00328
x2 = 0, x1 = 4.162e-05	0.00342
x2 = 0, x1 = 4.541e-05	0.00356
x2 = 0, x1 = 4.919e-05	0.00369
x2 = 0, x1 = 5.099e-05	0.00375
x2 = 0, x1 = 5.982e-05	0.00403
x2 = 0, x1 = 6.829e-05	0.00432
x2 = 0, x1 = 7.64e-05	0.00454
x2 = 0, x1 = 8.415e-05	0.00477
x2 = 0, x1 = 9.171e-05	0.00497
x2 = 0, x1 = 9.892e-05	0.00516
x2 = 0, x1 = 0.0001058	0.00533
x2 = 0, x1 = 0.0001124	0.0055
x2 = 0, x1 = 0.0001189	0.00565
x2 = 2.018e-05, x1 = 5.4e-07	0.0001
x2 = 2.018e-05, x1 = 9e-07	0.000245
x2 = 2.018e-05, x1 = 1.62e-06	0.000348
x2 = 2.018e-05, x1 = 2.34e-06	0.000456
x2 = 2.018e-05, x1 = 2.88e-06	0.000621
x2 = 2.018e-05, x1 = 3.78e-06	0.000716
x2 = 2.018e-05, x1 = 4.51e-06	0.000822
x2 = 2.018e-05, x1 = 5.59e-06	0.000964
x2 = 2.018e-05, x1 = 6.85e-06	0.00108
x2 = 2.018e-05, x1 = 7.93e-06	0.001203
x2 = 2.018e-05, x1 = 9.01e-06	0.001314
x2 = 2.018e-05, x1 = 1.009e-05	0.001427
x2 = 2.018e-05, x1 = 1.117e-05	0.001546
x2 = 2.018e-05, x1 = 1.334e-05	0.001813
x2 = 2.018e-05, x1 = 1.55e-05	0.00205
x2 = 2.018e-05, x1 = 1.766e-05	0.00226
x2 = 2.018e-05, x1 = 1.982e-05	0.0024
x2 = 2.018e-05, x1 = 2.181e-05	0.00252
x2 = 2.018e-05, x1 = 2.397e-05	0.00262
x2 = 2.018e-05, x1 = 2.595e-05	0.0027
x2 = 2.018e-05, x1 = 3.009e-05	0.00285
x2 = 2.018e-05, x1 = 3.406e-05	0.00306
x2 = 2.018e-05, x1 = 3.802e-05	0.00323
x2 = 2.018e-05, x1 = 4.181e-05	0.00336
x2 = 2.018e-05, x1 = 4.559e-05	0.0035
x2 = 2.018e-05, x1 = 4.92e-05	0.00362
x2 = 2.018e-05, x1 = 5.1e-05	0.00368
x2 = 2.018e-05, x1 = 6.001e-05	0.00392
x2 = 2.018e-05, x1 = 6.848e-05	0.00422
x2 = 2.018e-05, x1 = 7.658e-05	0.00445
x2 = 2.018e-05, x1 = 8.433e-05	0.00467
x2 = 2.018e-05, x1 = 9.19e-05	0.00486
x2 = 2.018e-05, x1 = 9.911e-05	0.00506
x2 = 2.018e-05, x1 = 0.000106	0.00523
x2 = 2.018e-05, x1 = 0.0001126	0.00538
x2 = 2.018e-05, x1 = 0.0001191	0.00553
x2 = 0.0002, x1 = 5.4e-07	0.000232
x2 = 0.0002, x1 = 9e-07	0.000298
x2 = 0.0002, x1 = 1.62e-06	0.00042
x2 = 0.0002, x1 = 2.16e-06	0.000524
x2 = 0.0002, x1 = 2.89e-06	0.000628
x2 = 0.0002, x1 = 3.79e-06	0.000685
x2 = 0.0002, x1 = 4.51e-06	0.000861
x2 = 0.0002, x1 = 5.59e-06	0.001036
x2 = 0.0002, x1 = 6.67e-06	0.00115
x2 = 0.0002, x1 = 7.75e-06	0.00127
x2 = 0.0002, x1 = 8.84e-06	0.001426
x2 = 0.0002, x1 = 9.92e-06	0.00157
x2 = 0.0002, x1 = 1.1e-05	0.00168
x2 = 0.0002, x1 = 1.316e-05	0.001913
x2 = 0.0002, x1 = 1.533e-05	0.00214
x2 = 0.0002, x1 = 1.731e-05	0.00228
x2 = 0.0002, x1 = 1.947e-05	0.00243
x2 = 0.0002, x1 = 2.146e-05	0.00253
x2 = 0.0002, x1 = 2.344e-05	0.00262
x2 = 0.0002, x1 = 2.56e-05	0.00272
x2 = 0.0002, x1 = 2.957e-05	0.00291
x2 = 0.0002, x1 = 3.336e-05	0.00307
x2 = 0.0002, x1 = 3.732e-05	0.00323
x2 = 0.0002, x1 = 4.111e-05	0.00337
x2 = 0.0002, x1 = 4.472e-05	0.0035
x2 = 0.0002, x1 = 4.832e-05	0.00363
x2 = 0.0002, x1 = 5.012e-05	0.0037
x2 = 0.0002, x1 = 5.878e-05	0.00399

CCC(=O)[O-].CCOCCn1cc[n+](C)c1 + O
100 kPa
Conditions	electrical conductivity [S/m]	viscosity [mPa·s]
288.15 K, x1 = 0.8211	0.244	56.95
288.15 K, x1 = 0.85	0.209	62.86
288.15 K, x1 = 0.8812	0.178	69.98
288.15 K, x1 = 0.9123	0.148	77.3
288.15 K, x1 = 0.9441	0.118	85.4
288.15 K, x1 = 1	0.067	96.2
293.15 K, x1 = 0.8211	0.285	43.77
293.15 K, x1 = 0.85	0.255	48.37
293.15 K, x1 = 0.8812	0.228	53.31
293.15 K, x1 = 0.9123	0.202	58.97
293.15 K, x1 = 0.9441	0.177	64.74
293.15 K, x1 = 1	0.132	72.77
298.15 K, x1 = 0.8211	0.332	34.4
298.15 K, x1 = 0.85	0.305	37.68
298.15 K, x1 = 0.8812	0.28	41.51
298.15 K, x1 = 0.9123	0.258	45.4
298.15 K, x1 = 0.9441	0.236	49.8
298.15 K, x1 = 1	0.196	55.65
303.15 K, x1 = 0.8211	0.425	27.21
303.15 K, x1 = 0.85	0.399	29.76
303.15 K, x1 = 0.8812	0.371	32.63
303.15 K, x1 = 0.9123	0.349	35.7
303.15 K, x1 = 0.9441	0.326	39.01
303.15 K, x1 = 1	0.285	43.51
308.15 K, x1 = 0.8211	0.539	22.04
308.15 K, x1 = 0.85	0.507	23.97
308.15 K, x1 = 0.8812	0.478	26.44
308.15 K, x1 = 0.9123	0.451	28.78
308.15 K, x1 = 0.9441	0.425	30.96
308.15 K, x1 = 1	0.378	34.6
313.15 K, x1 = 0.8211	0.647	17.65
313.15 K, x1 = 0.85	0.617	19.48
313.15 K, x1 = 0.8812	0.588	21.34
313.15 K, x1 = 0.9123	0.561	22.96
313.15 K, x1 = 0.9441	0.534	24.58
313.15 K, x1 = 1	0.488	27.45
318.15 K, x1 = 0.8211	0.775	14.34
318.15 K, x1 = 0.85	0.747	15.58
318.15 K, x1 = 0.8812	0.718	17.15
318.15 K, x1 = 0.9123	0.691	18.49
318.15 K, x1 = 0.9441	0.664	19.86
318.15 K, x1 = 1	0.619	22.11
